Assay results published in patent US20090203605A1, “Methods For Treating A Condition Characterized By Dysfunction In Protein Homeostasis” (THE SCRIPPS RESEARCH INSTITUTE, priority 2008, published 2009).
Residues, ends and D or L forms follow the SMILES beside them. *: point of attachment. Cbz = O=C(OCc1ccccc1)*

Legend:
[1] = target: T1, G269S/1278insTATC HexA (Homo sapiens, UniProt P06865, G269S); experiment: Hex α-site cell assay in Tay-Sachs fibroblast cell line; type: cell-based; conditions: MG-132 0.8 to 1 μM, 144 h incubation
T1 construct: host or cells: Tay-Sachs patient fibroblasts, lysed for the MUGS assay
T1 sequence (P06865 89-529 G269S): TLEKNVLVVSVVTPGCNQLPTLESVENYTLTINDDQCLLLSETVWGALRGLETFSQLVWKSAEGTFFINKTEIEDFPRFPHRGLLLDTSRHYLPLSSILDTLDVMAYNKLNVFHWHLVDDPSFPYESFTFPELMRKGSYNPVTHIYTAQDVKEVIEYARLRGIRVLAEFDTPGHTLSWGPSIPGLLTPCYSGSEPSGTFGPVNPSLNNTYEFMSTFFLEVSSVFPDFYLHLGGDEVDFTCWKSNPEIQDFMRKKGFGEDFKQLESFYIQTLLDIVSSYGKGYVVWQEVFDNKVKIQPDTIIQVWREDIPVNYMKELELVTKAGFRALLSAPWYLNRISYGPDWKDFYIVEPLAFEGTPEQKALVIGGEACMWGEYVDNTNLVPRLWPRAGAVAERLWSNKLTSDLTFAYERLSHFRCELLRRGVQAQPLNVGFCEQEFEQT
T1 sequence (P07686 122-556 partner): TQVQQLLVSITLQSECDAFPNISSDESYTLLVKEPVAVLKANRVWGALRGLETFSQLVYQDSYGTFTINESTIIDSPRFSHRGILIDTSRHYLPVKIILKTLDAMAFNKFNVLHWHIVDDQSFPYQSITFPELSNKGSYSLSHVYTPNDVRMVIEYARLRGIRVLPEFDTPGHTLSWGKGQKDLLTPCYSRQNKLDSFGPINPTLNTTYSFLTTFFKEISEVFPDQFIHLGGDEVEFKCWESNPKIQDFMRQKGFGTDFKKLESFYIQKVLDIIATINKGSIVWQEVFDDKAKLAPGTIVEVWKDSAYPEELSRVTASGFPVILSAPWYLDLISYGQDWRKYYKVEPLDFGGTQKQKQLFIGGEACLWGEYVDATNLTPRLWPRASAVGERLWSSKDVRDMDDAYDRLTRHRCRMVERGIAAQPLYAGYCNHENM
Source text: We therefore evaluated the ability of these proteostasis regulators to restore partial function to HexA, a heterodimeric enzyme composed of α- and β-subunits that degrades GM2 gangliosides in the lysosome. Mutations in the β-hexosaminidase A α-subunit can cause extensive ERAD of HexA, leading to Tay-Sachs disease (TSD). Jeyakumar et al., Neuropathol Appl Neurobiol 28: 343-357, 2002. HexA activity was studied in a compound heterozygous fibroblast cell line (GM13204), harboring one of the most prevalent β-hexosaminidase A α-subunit mutations (G269S) found in Tay-Sachs patients and a second mutated HexA allele (1278insTATC) with a stop codon. […] Tropak et al., J Biol Chem 279: 13478-13487, 2004.
The Hex α-site cell assay has been previously described. Tropak et al., J Biol Chem 279: 13478-13487, 2004. Cells were plated as described for the GC assay. After 1 to 8 days of incubation the medium was removed, cells were washed with PBS, and lysed with 60 μl of 10 mM citrate/phosphate buffer pH 4.2 (CP buffer) containing 0.5% human serum albumin and 0.5% Triton X-100. 30 μl of aliquots were transferred to a 96-well plate and Hex α-site activity was measured by adding 30 μl of 3.2 mM MUGS in CP buffer to each well and incubating the plates at 37° C. for 1 to 7 hour. The reaction was stopped by adding 200 μl of 0.1 M 2-amino-2-methyl-1-propanol pH 10.5 and the fluorescence was measured (excitation 365 nm, emission 450 nm).

[2] = target: T2, L444P GC (Homo sapiens, UniProt P04062, L483P); experiment: Lysed cell GC activity assay, lysed L444P fibroblasts incubated with compound; type: biochemical; conditions: 0.01 to 1000 μM
T2 construct: a L444P GC Gaucher fibroblast cell line (GM08760); host or cells: Gaucher patient-derived skin fibroblasts
T2 sequence (P04062 40-536 L483P): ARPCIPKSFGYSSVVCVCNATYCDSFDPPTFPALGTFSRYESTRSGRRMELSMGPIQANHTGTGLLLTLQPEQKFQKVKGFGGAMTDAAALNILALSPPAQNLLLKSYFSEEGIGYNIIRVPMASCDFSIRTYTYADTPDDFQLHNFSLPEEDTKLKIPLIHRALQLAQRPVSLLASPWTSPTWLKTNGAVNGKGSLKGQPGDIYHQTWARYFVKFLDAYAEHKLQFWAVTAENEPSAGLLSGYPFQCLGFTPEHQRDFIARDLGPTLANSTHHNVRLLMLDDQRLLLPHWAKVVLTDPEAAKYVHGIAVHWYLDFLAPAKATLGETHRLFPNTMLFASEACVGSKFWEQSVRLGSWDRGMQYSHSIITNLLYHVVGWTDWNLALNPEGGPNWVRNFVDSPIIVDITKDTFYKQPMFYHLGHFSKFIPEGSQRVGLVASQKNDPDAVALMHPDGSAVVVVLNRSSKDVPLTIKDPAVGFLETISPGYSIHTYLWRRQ

Row | SMILES | Hex α-site activity as % of cellular WT Hex α-site activity [1] | GC inhibition in lysed L444P fibroblasts [2]
1 | CC(C)C[C@@H](C=O)NC(=O)[C@H](CC(C)C)NC(=O)[C@H](CC(C)C)NC(=O)OCc1ccccc1 [MG-132] (Cbz-Leu-Leu-Leu-aldehyde) | ≈ 18% | 
2 | COc1ccc([C@@H]2Sc3ccccc3N(CCN(C)C)C(=O)[C@@H]2OC(C)=O)cc1.Cl [diltiazem, Diltiazem hydrochloride] |  | No significant GC inhibition
